Consider six compounds from US20180243286A1, “Antibacterial compositions of a beta-lactamase inhibitor with a cephalosporin” (WOCKHARDT LIMITED, priority 2015, published 2018).

The test system of assay [1] is K. pneumoniae H521 producing KPC, SHV and TEM beta-lactamase enzymes. As to the kind of experiment: Time kill study against clinical isolate of K. pneumoniae H521. The settings on record: for Bacterial count (Log10 CFU/ml) 0 hour: 0 hour (starting inoculum); for Change in Log10 CFU/ml over 0 hour count after 8 hours: positive = increase; for Effect on bacterial counts when used alone: throughout the duration of the study. The format is cell-based. The method, then:
(§1) The killing effect of the combinations according to invention was studied by performing time kill studies. In a typical time kill study, the freshly grown cultures were diluted to the required cell density (initial starting inoculum) in Cation adjusted Muller Hinton broth medium (BD, USA). The antibacterial agents (either alone or in combination) at the required concentrations were added into the culture-containing medium. The samples were incubated under shaking condition (120 rpm) at 37° C. Enumeration of viable bacterial count was done every 2 hour by diluting in normal saline and plating on to the Tryptic Soya Agar plates (BD, USA). The plates were incubated for 24 hours to arrive at the viable bacterial count. The results are expressed in terms of log10 CFU per ml. In general, the decrease of 1 log10 CFU/ml corresponds to 90% killing of bacteria. Similarly, 2 log10 CFU/ml reductions indicates to 99% killing of bacteria and 3 log10 CFU/ml reductions is equal to 99.9% killing of bacteria.
K. pneumoniae H521 produces resistant KPC, SHV and TEM beta-lactamase enzymes.

Assay [2] concerns E. coli M50 producing CMY 6, DHA-1/2 beta-lactamase enzymes. As to the kind of experiment: Time kill study against clinical isolate of E. coli M50. To be noted: for Bacterial count (Log10 CFU/ml) 0 hour: 0 hour (starting inoculum); for Effect on bacterial counts when used alone: throughout the duration of the study. The format is cell-based. The method, then:
as §1
E. coli M50 produces resistant CMY 6, DHA-1/2 beta-lactamase enzymes.

[3] abbreviates: agent alone 4 mcg/ml, negative = reduction.

In the case of `C=CC1=C(C(=O)O)N2C(=O)[C@@H](NC(=O)/C(=N\OCC(=O)O)c3csc(N)n3)[C@H]2SC1` [Cefixime], in assay [1] (agent alone 4 mcg/ml), the “Bacterial count (Log10 CFU/ml) 0 hour” value came to 7.18 Log10 CFU/ml, the “Bacterial count (Log10 CFU/ml) 2 hour” value came to 8.26 Log10 CFU/ml, the “Bacterial count (Log10 CFU/ml) 4 hour” value stood at 8.85 Log10 CFU/ml and the “Bacterial count (Log10 CFU/ml) 6 hour” value is reported as 8.98 Log10 CFU/ml. In assay [1] (agent alone 4 mcg/ml), the “Bacterial count (Log10 CFU/ml) 8 hour” value amounted to 8.95 Log10 CFU/ml and the “Change in Log10 CFU/ml over 0 hour count after 8 hours” value (“Change in Log10 CFU/ml” for short) came out at 1.77 Log10 CFU/ml. For the same compound, in assay [2] (agent alone 4 mcg/ml), the “Bacterial count (Log10 CFU/ml) 0 hour” value came to 7.14 Log10 CFU/ml, the “Bacterial count (Log10 CFU/ml) 2 hour” value worked out at 8.95 Log10 CFU/ml, the “Bacterial count (Log10 CFU/ml) 4 hour” value is reported as 8.40 Log10 CFU/ml and the “Bacterial count (Log10 CFU/ml) 6 hour” value is 8.90 Log10 CFU/ml. The “Bacterial count (Log10 CFU/ml) 8 hour” value in assay [2] (agent alone 4 mcg/ml) worked out at 8.65 Log10 CFU/ml. Also, in assay [2] (setting [3]), the “Change in Log10 CFU/ml” value worked out at 1.51 Log10 CFU/ml.

With `COCC1=C(C(=O)O)N2C(=O)[C@@H](NC(=O)/C(=N\OC)c3csc(N)n3)[C@H]2SC1` [Cefpodoxime], in assay [1] (agent alone 4 mcg/ml), the “Bacterial count (Log10 CFU/ml) 0 hour” value worked out at 7.18 Log10 CFU/ml, the “Bacterial count (Log10 CFU/ml) 2 hour” value is listed as 8.60 Log10 CFU/ml, the “Bacterial count (Log10 CFU/ml) 4 hour” value was determined as 8.74 Log10 CFU/ml and the “Bacterial count (Log10 CFU/ml) 6 hour” value is reported as 8.93 Log10 CFU/ml. In assay [1] (agent alone 4 mcg/ml), the “Bacterial count (Log10 CFU/ml) 8 hour” value amounted to 8.81 Log10 CFU/ml and the “Change in Log10 CFU/ml” value was determined as 1.63 Log10 CFU/ml. For the same compound, in assay [2] (agent alone 4 mcg/ml), the “Bacterial count (Log10 CFU/ml) 0 hour” value came to 7.14 Log10 CFU/ml, the “Bacterial count (Log10 CFU/ml) 2 hour” value came to 8.18 Log10 CFU/ml, the “Bacterial count (Log10 CFU/ml) 4 hour” value turned out to be 8.88 Log10 CFU/ml and the “Bacterial count (Log10 CFU/ml) 6 hour” value amounted to 8.95 Log10 CFU/ml. In addition, in assay [2] (agent alone 4 mcg/ml), the “Bacterial count (Log10 CFU/ml) 8 hour” value is on record as 8.40 Log10 CFU/ml. Moreover, the “Change in Log10 CFU/ml” value in assay [2] (setting [3]) was 1.26 Log10 CFU/ml.

`Nc1nc(/C(=C/CC(=O)O)C(=O)N[C@@H]2C(=O)N3C(C(=O)O)=CCS[C@H]23)cs1` [Ceftibuten]: in assay [1] (agent alone 4 mcg/ml), the “Bacterial count (Log10 CFU/ml) 0 hour” value stood at 7.18 Log10 CFU/ml, the “Bacterial count (Log10 CFU/ml) 2 hour” value came out at 8.18 Log10 CFU/ml, the “Bacterial count (Log10 CFU/ml) 4 hour” value is 8.88 Log10 CFU/ml and the “Bacterial count (Log10 CFU/ml) 6 hour” value is 8.40 Log10 CFU/ml. For the same compound, in assay [1] (agent alone 4 mcg/ml), the “Bacterial count (Log10 CFU/ml) 8 hour” value is recorded as 8.60 Log10 CFU/ml and the “Change in Log10 CFU/ml” value came out at 1.42 Log10 CFU/ml. Further, the “Effect on bacterial counts when used alone” value (from here on “Effect on bacterial counts”) in assay [1] is “did not reduce the bacterial counts”. In addition, in assay [2] (agent alone 4 mcg/ml), the “Bacterial count (Log10 CFU/ml) 0 hour” value was 7.14 Log10 CFU/ml, the “Bacterial count (Log10 CFU/ml) 2 hour” value is listed as 7.90 Log10 CFU/ml, the “Bacterial count (Log10 CFU/ml) 4 hour” value is 8.40 Log10 CFU/ml and the “Bacterial count (Log10 CFU/ml) 6 hour” value is listed as 8.98 Log10 CFU/ml. Further, the “Bacterial count (Log10 CFU/ml) 8 hour” value in assay [2] (agent alone 4 mcg/ml) was found to be 8.93 Log10 CFU/ml. Further, the “Change in Log10 CFU/ml” value in assay [2] (setting [3]) turned out to be 1.79 Log10 CFU/ml. For the same compound, the “Effect on bacterial counts” value in assay [2] is “did not reduce the bacterial counts”.

On to `CO/N=C(\C(=O)N[C@@H]1C(=O)N2C(C(=O)O)=C(COC(N)=O)CS[C@H]12)c1ccco1` [Cefuroxime], for which, in assay [1] (agent alone 4 mcg/ml), the “Bacterial count (Log10 CFU/ml) 0 hour” value is given as 7.18 Log10 CFU/ml, the “Bacterial count (Log10 CFU/ml) 2 hour” value was 8.48 Log10 CFU/ml, the “Bacterial count (Log10 CFU/ml) 4 hour” value came to 8.70 Log10 CFU/ml and the “Bacterial count (Log10 CFU/ml) 6 hour” value is 8.78 Log10 CFU/ml. Moreover, in assay [1] (agent alone 4 mcg/ml), the “Bacterial count (Log10 CFU/ml) 8 hour” value stood at 8.60 Log10 CFU/ml and the “Change in Log10 CFU/ml” value is reported as 1.42 Log10 CFU/ml. For the same compound, the “Effect on bacterial counts” value in assay [1] is recorded as “did not reduce the bacterial counts”. For the same compound, in assay [2] (agent alone 4 mcg/ml), the “Bacterial count (Log10 CFU/ml) 0 hour” value is reported as 7.14 Log10 CFU/ml, the “Bacterial count (Log10 CFU/ml) 2 hour” value is recorded as 8.33 Log10 CFU/ml, the “Bacterial count (Log10 CFU/ml) 4 hour” value worked out at 8.54 Log10 CFU/ml and the “Bacterial count (Log10 CFU/ml) 6 hour” value was determined as 9.20 Log10 CFU/ml. In addition, the “Bacterial count (Log10 CFU/ml) 8 hour” value in assay [2] (agent alone 4 mcg/ml) amounted to 8.65 Log10 CFU/ml. Besides, the “Change in Log10 CFU/ml” value in assay [2] (setting [3]) was 1.51 Log10 CFU/ml. Moreover, the “Effect on bacterial counts” value in assay [2] is “did not reduce the bacterial counts”.

As for `NCCONC(=O)[C@@H]1CC[C@@H]2CN1C(=O)N2OS(=O)(=O)O` [Compound of Formula (I), (2S,5R)—N-(2-aminoethoxy)-7-oxo-6-(sulfoxy)-1,6-diazabicyclo[3.2.1]octane-2-carboxamide], in assay [1] (agent alone 4 mcg/ml), the “Bacterial count (Log10 CFU/ml) 0 hour” value is reported as 7.18 Log10 CFU/ml, the “Bacterial count (Log10 CFU/ml) 2 hour” value stood at 7.98 Log10 CFU/ml, the “Bacterial count (Log10 CFU/ml) 4 hour” value is reported as 8 Log10 CFU/ml and the “Bacterial count (Log10 CFU/ml) 6 hour” value worked out at 8.37 Log10 CFU/ml. In assay [1] (agent alone 4 mcg/ml), the “Bacterial count (Log10 CFU/ml) 8 hour” value stood at 8.04 Log10 CFU/ml and the “Change in Log10 CFU/ml” value was found to be 0.86 Log10 CFU/ml. Besides, the “Effect on bacterial counts” value in assay [1] is given as “did not reduce the bacterial counts”. In assay [2] (agent alone 4 mcg/ml), the “Bacterial count (Log10 CFU/ml) 0 hour” value came out at 7.14 Log10 CFU/ml, the “Bacterial count (Log10 CFU/ml) 2 hour” value turned out to be 6.40 Log10 CFU/ml, the “Bacterial count (Log10 CFU/ml) 4 hour” value is recorded as 5.32 Log10 CFU/ml and the “Bacterial count (Log10 CFU/ml) 6 hour” value came to 5.32 Log10 CFU/ml. Besides, the “Bacterial count (Log10 CFU/ml) 8 hour” value in assay [2] (agent alone 4 mcg/ml) stood at 5.34 Log10 CFU/ml. Also, the “Change in Log10 CFU/ml” value in assay [2] (setting [3]) was −1.8 Log10 CFU/ml. Moreover, the “Effect on bacterial counts” value in assay [2] is “did not reduce the bacterial counts”.

As for `C[C@@H](O)[C@H]1C(=O)N2C(C(=O)O)=C(SCCN=CN)C[C@H]12` [Imipenem], in assay [1] (8 mcg/ml alone), the “Bacterial count (Log10 CFU/ml) 0 hour” value was found to be 7.18 Log10 CFU/ml, the “Bacterial count (Log10 CFU/ml) 2 hour” value came to 8.10 Log10 CFU/ml, the “Bacterial count (Log10 CFU/ml) 4 hour” value was 8.81 Log10 CFU/ml and the “Bacterial count (Log10 CFU/ml) 6 hour” value is 8.70 Log10 CFU/ml. For the same compound, in assay [1] (8 mcg/ml alone), the “Bacterial count (Log10 CFU/ml) 8 hour” value was found to be 9.11 Log10 CFU/ml and the “Change in Log10 CFU/ml” value is recorded as 1.93 Log10 CFU/ml. Also, in assay [2] (1 mcg/ml alone), the “Bacterial count (Log10 CFU/ml) 0 hour” value came to 7.14 Log10 CFU/ml, the “Bacterial count (Log10 CFU/ml) 2 hour” value worked out at 4.25 Log10 CFU/ml, the “Bacterial count (Log10 CFU/ml) 4 hour” value is on record as 4.60 Log10 CFU/ml and the “Bacterial count (Log10 CFU/ml) 6 hour” value worked out at 6.04 Log10 CFU/ml. Also, in assay [2] (1 mcg/ml alone), the “Bacterial count (Log10 CFU/ml) 8 hour” value is listed as 7.34 Log10 CFU/ml. Moreover, the “Change in Log10 CFU/ml” value in assay [2] (1 mcg/ml alone, positive = increase) turned out to be 0.2 Log10 CFU/ml.
